Patent US4818753A, “Synthesis and method of use for 2, 4 diaminoquinazoline” (SRI International, priority 1987, dated 1989)
Values after ≈ are worked out from the molar mass of the structure shown. Like-named read-outs stand apart in the source and are kept apart here.

Experiments:
[1] = test system: Cryptococcus neoformans; conditions: Hariri 1976, cited from earlier work
[2] = test system: Plasmodium species; conditions: Hariri 1976; cited from earlier work
[3] = test system: Cryptococcus neoformans; conditions: Hariri 1976; cited from earlier work
[4] = test system: Microsporum gypseum (14683); assay: Broth dilution assay, F12; format: cell-based; conditions: Nannizzia gypsea
Description: (§1) Both broth dilution and agar dilution assays were used to assess the antifungal activity of the compounds of the invention. The cultures were maintained in Sabouraud dextrose broth (SDB) and diluted with […]. 2.5 l of SDB was prepared and distributed into sterile vessels as follows: 49 ml into 1 vessel, 27 ml into 3 vessels, 45 ml into 2 vessels.
(§2) Five mg/ml concentration of each compound was prepared using DMSO as the solvent; warming and sonication were necessary to dissolve each compound completely. The compounds were then diluted in SDB according to the following protocol:
(§3) 5. 1 ug/ml--5 ml (3)+45 ml SDB
(§4) The compound at each concentration in SDB was then dispensed into 6 tubes each containing 4 ml […]. Controls (without any compound) were also prepared to insure that the solvent itself was not fungicidal or fungistatic.
(§5) Cultures were grown in SDB for 24 h at 30° C. C. albicans and C. neoformans were diluted 1:10 in SDB before inoculation. Inoculation volume for yeasts was 2 drops of diluted cells per tube. The fungal cultures were homogenized before inoculation. The same volume was added, but without dilution. All tubes were incubated at room temperature on a rotating wheel. After 16 h of incubation at room temperature, the fungistatic assay was set up on agar plates. […] Yeasts were inoculated onto SDA (the corresponding agar) plates and fungi onto mycosel agar plates. These plates were then incubated at room temperature.

[5] = test system: Penicillium citrinum (9849); assay: Broth dilution assay, F19; format: cell-based; conditions: for MIC: Table 1, F19, Sabouraud Dextrose Broth pH 5.5, read-out: Minimum Inhibitory Concentration (S, fungistatic); for MFC: Table 1, F19, Sabouraud Dextrose Broth pH 5.5, read-out: Minimum Lethal Concentration (C, fungicidal)
Description: as §1, §2, §3, §4, §5

[6] = test system: Candida albicans (14053); assay: Broth dilution assay, F2; format: cell-based; conditions: for MIC: Table 1, F2, Sabouraud Dextrose Broth pH 5.5, read-out: Minimum Inhibitory Concentration (S, fungistatic); for MFC: Table 1, F2, Sabouraud Dextrose Broth pH 5.5, read-out: Minimum Lethal Concentration (C, fungicidal)
Description: as §1, §2, §3, §4, §5

[7] = test system: Cryptococcus neoformans (13690); assay: Broth dilution assay, F3; format: cell-based
Description: as §1, §2, §3, §4, §5

[8] = test system: Candida albicans (10231); assay: Broth dilution assay, F1; format: cell-based
Description: as §1, §2, §3, §4, §5

[9] = test system: Epidermophyton floccosum (15693); assay: Broth dilution assay, F4; format: cell-based; conditions: for MIC: Table 1, F4, Sabouraud Dextrose Broth pH 5.5, read-out: Minimum Inhibitory Concentration (S, fungistatic)
Description: as §1, §2, §3, §4, §5

[10] = test system: Trichophyton mentagrophytes (11481); assay: Broth dilution assay, F6; format: cell-based
Description: as §1, §2, §3, §4, §5

[11] = test system: fungi; assay: Broth dilution assay, whole panel; format: cell-based; conditions: Tables 1 and 2
Description: as §1, §2, §3, §4
as §5, with “These plates were then incubated at room temperature.” left out

[12] = Table 1, Sabouraud Dextrose Broth pH 5.5, read-out: Minimum Inhibitory Concentration (S, fungistatic)
[13] = Table 1, Sabouraud Dextrose Broth pH 5.5, read-out: Minimum Lethal Concentration (C, fungicidal)
[14] = Table 1, F3, Sabouraud Dextrose Broth pH 5.5, read-out: Minimum Inhibitory Concentration (S, fungistatic)
[15] = Table 1, F3, Sabouraud Dextrose Broth pH 5.5, read-out: Minimum Lethal Concentration (C, fungicidal)
[16] = Table 1, F1, Sabouraud Dextrose Broth pH 5.5, read-out: Minimum Inhibitory Concentration (S, fungistatic)
[17] = Table 1, F1, Sabouraud Dextrose Broth pH 5.5, read-out: Minimum Lethal Concentration (C, fungicidal)
[18] = Table 1, F4, Sabouraud Dextrose Broth pH 5.5, read-out: Minimum Lethal Concentration (C, fungicidal)
[19] = Table 1, F6, Sabouraud Dextrose Broth pH 5.5, read-out: Minimum Inhibitory Concentration (S, fungistatic)
[20] = Table 1, F6, Sabouraud Dextrose Broth pH 5.5, read-out: Minimum Lethal Concentration (C, fungicidal)

## Nc1nc(N)c2cc(NC(=O)Cc3ccc(Cl)c(Cl)c3)ccc2n1 [2,4-diamino-6-(2-(3,4-dichlorophenyl)acetamido)quinazoline]
[1]; C. neoformans
  minimum inhibitory concentration (MIC): 6 to 8 µg/mL
[1]; in vitro
  in vitro activity: active in vitro and in vivo
[2]
  activity against Plasmodium: no activity
[3]
  in vivo activity: active in vitro and in vivo

## CCCCc1ccc2nc(N)nc(N)c2c1C [--CH2 (CH2)2 CH3]
[4]; [12]
  MIC: 30 µg/mL (≈ 130 µM)
[4]; [13]
  MFC: > 30 µg/mL
[5]
  MIC: 100 µg/mL (≈ 434 µM)
  MFC: > 100 µg/mL
[6]
  MIC: 100 µg/mL (≈ 434 µM)
  MFC: 100 µg/mL (≈ 434 µM)
[7]; [14]
  MIC: 30 µg/mL (≈ 130 µM)
[7]; [15]
  MFC: 30 µg/mL (≈ 130 µM)
[8]; [16]
  MIC: 100 µg/mL (≈ 434 µM)
[8]; [17]
  MFC: > 100 µg/mL
[9]
  MIC: 10 µg/mL (≈ 43.4 µM)
[9]; [18]
  MFC: 30 µg/mL (≈ 130 µM)
[10]; [19]
  MIC: > 30 µg/mL
[10]; [20]
  MFC: > 30 µg/mL

## CCCCCc1ccc2nc(N)nc(N)c2c1C [--CH2 (CH2)3 CH 3]
[4]; [12]
  MIC: 30 µg/mL (≈ 123 µM)
[4]; [13]
  MFC: > 30 µg/mL
[5]
  MIC: 100 µg/mL (≈ 409 µM)
  MFC: 100 µg/mL (≈ 409 µM)
[6]
  MIC: 100 µg/mL (≈ 409 µM)
  MFC: 100 µg/mL (≈ 409 µM)
[7]; [14]
  MIC: 10 µg/mL (≈ 40.9 µM)
[7]; [15]
  MFC: 30 µg/mL (≈ 123 µM)
[8]; [16]
  MIC: 100 µg/mL (≈ 409 µM)
[8]; [17]
  MFC: 100 µg/mL (≈ 409 µM)
[9]
  MIC: 10 µg/mL (≈ 40.9 µM)
[9]; [18]
  MFC: 30 µg/mL (≈ 123 µM)
[10]; [19]
  MIC: 30 µg/mL (≈ 123 µM)
[10]; [20]
  MFC: > 30 µg/mL

## CCCCCCc1ccc2nc(N)nc(N)c2c1C [--CH2 (CH2)4 CH3, 2,4-Diamino-5-methyl-6-n-hexylquinazoline]
[11]
  fungicidal and fungistatic activity in words: best fungicidal and fungistatic activity
[4]; [12]
  MIC: 10 µg/mL (≈ 38.7 µM)
[4]; [13]
  MFC: 30 µg/mL (≈ 116 µM)
[4]; Table 2, Sabouraud Dextrose Broth pH 5.5, read-out: C Fungicidal
  MFC: 100 µg/mL (≈ 387 µM)
[4]; Table 2, Sabouraud Dextrose Broth pH 5.5, read-out: S Fungistatic
  MIC: 30 µg/mL (≈ 116 µM)
[5]
  MIC: 100 µg/mL (≈ 387 µM)
  MFC: 100 µg/mL (≈ 387 µM)
[6]
  MIC: 30 µg/mL (≈ 116 µM)
  MFC: 30 µg/mL (≈ 116 µM)
[7]; [14]
  MIC: 3 µg/mL (≈ 11.6 µM)
[7]; [15]
  MFC: 10 µg/mL (≈ 38.7 µM)
[7]; Table 2, F3, Sabouraud Dextrose Broth pH 5.5, read-out: C Fungicidal
  MFC: 3 µg/mL (≈ 11.6 µM)
[7]; Table 2, F3, Sabouraud Dextrose Broth pH 5.5, read-out: S Fungistatic
  MIC: 3 µg/mL (≈ 11.6 µM)
[8]; [16]
  MIC: 30 µg/mL (≈ 116 µM)
[8]; [17]
  MFC: 30 µg/mL (≈ 116 µM)
[8]; Table 2, F1, Sabouraud Dextrose Broth pH 5.5, read-out: C Fungicidal
  MFC: > 100 µg/mL
[8]; Table 2, F1, Sabouraud Dextrose Broth pH 5.5, read-out: S Fungistatic
  MIC: 30 µg/mL (≈ 116 µM)
[9]
  MIC: 3 µg/mL (≈ 11.6 µM)
[9]; Table 2, F4, Sabouraud Dextrose Broth pH 5.5, read-out: C Fungicidal
  MFC: 30 µg/mL (≈ 116 µM)
[10]; [19]
  MIC: 30 µg/mL (≈ 116 µM)
[10]; [20]
  MFC: > 30 µg/mL
[10]; Table 2, F6, Sabouraud Dextrose Broth pH 5.5, read-out: C Fungicidal
  MFC: 30 µg/mL (≈ 116 µM)
[10]; Table 2, F6, Sabouraud Dextrose Broth pH 5.5, read-out: S Fungistatic
  MIC: 30 µg/mL (≈ 116 µM)

## CCCc1ccc2nc(N)nc(N)c2c1C [--CH2 CH2 CH3]
[4]; [12]
  MIC: > 30 µg/mL
[4]; [13]
  MFC: > 30 µg/mL
[5]
  MIC: > 100 µg/mL
  MFC: > 100 µg/mL
[6]
  MIC: > 100 µg/mL
  MFC: > 100 µg/mL
[7]; [14]
  MIC: > 100 µg/mL
[7]; [15]
  MFC: > 100 µg/mL
[8]; [16]
  MIC: > 100 µg/mL
[8]; [17]
  MFC: > 100 µg/mL
[9]
  MIC: 30 µg/mL (≈ 139 µM)
[9]; [18]
  MFC: > 30 µg/mL
[10]; [19]
  MIC: > 30 µg/mL
[10]; [20]
  MFC: > 30 µg/mL

## Cc1c(CCC(C)C)ccc2nc(N)nc(N)c12 [--CH2 CH2 CH(CH3)2]
[4]; [12]
  MIC: 30 µg/mL (≈ 123 µM)
[4]; [13]
  MFC: > 30 µg/mL
[5]
  MIC: 100 µg/mL (≈ 409 µM)
  MFC: > 100 µg/mL
[6]
  MIC: 100 µg/mL (≈ 409 µM)
  MFC: 100 µg/mL (≈ 409 µM)
[7]; [14]
  MIC: 10 µg/mL (≈ 40.9 µM)
[7]; [15]
  MFC: 30 µg/mL (≈ 123 µM)
[8]; [16]
  MIC: 100 µg/mL (≈ 409 µM)
[8]; [17]
  MFC: 100 µg/mL (≈ 409 µM)
[9]
  MIC: 10 µg/mL (≈ 40.9 µM)
[9]; [18]
  MFC: 10 µg/mL (≈ 40.9 µM)
[10]; [19]
  MIC: > 30 µg/mL
[10]; [20]
  MFC: > 30 µg/mL

## Cc1cccc2nc(N)nc(N)c12 [H]
[4]; [12]
  MIC: > 30 µg/mL
[4]; [13]
  MFC: > 30 µg/mL
[5]
  MIC: > 100 µg/mL
  MFC: > 100 µg/mL
[6]
  MIC: > 100 µg/mL
  MFC: > 100 µg/mL
[7]; [14]
  MIC: > 100 µg/mL
[7]; [15]
  MFC: > 100 µg/mL
[8]; [16]
  MIC: > 100 µg/mL
[8]; [17]
  MFC: > 100 µg/mL
[9]
  MIC: > 30 µg/mL
[9]; [18]
  MFC: > 30 µg/mL
[10]; [19]
  MIC: > 30 µg/mL
[10]; [20]
  MFC: > 30 µg/mL
